The assay concerns proton-gated cation channels in cultured mouse cortical neurons. The assay can be described thus: Whole cell patch clamp of proton-gated currents in cultured mouse cortical neurons. It counts as cell-based. Here is the method:
The following experiments were performed in voltage-or current clamp using conventional whole cell patch clamp methods [Hamill O P, Marty A, Neher E, Sakmann B and Sigworth F J: Improved patch-clamp techniques for high-resolution current recording from cells and cell-free membrane patches; Pflügers Arch. 1981 39 85-100]. The following salt solutions were used (where nothing else stated, the chemicals are available from Sigma): NaCl (140 mM), KCl (4 mM), CaCl2 (2 mM), MgCl2 (1 mM), Sucrose (30 mM; Available from Fluka Chemie, Buchs, Switzerland), HEPES (10 mM, pH 6-7.4). Solutions with pH<6 were buffered with MES (10 mM) in stead of HEPES. Solutions with no added Ca^2+ contained 3 mM MgCl2. Solutions with no added Na^+ contained 140 mM N-methyl-D-glucamine. For voltage clamp experiments, the extracellular solutions were added Tetrodotoxin (0.0003 mM; Available from Alomone Labs, Jerusalem, Israel) and Bicuculline Methiodide (0.005 mM; Available from RBI, MA, USA).
Intracellular solution for voltage clamp experiments: CsCl (120 mM), CsF (20 mM), MgCl2 (2 mM), EGTA (10 mM), HEPES (10 mM; pH=7.2). […]
For voltage clamp experiments, the cells were held at a holding voltage of −60 mV and at the start of each experiment the current was continuously measured for at least 30 sec. to ensure a stable leak current. […]
On the technique in general: In patch-clamp work, channel activity is measured electrically.

This is an account of results in patent US7288653B2, “Inhibitors of proton-gated cation channels and their use in the treatment of ischaemic disorders” (PainCeptor Pharma Corporation, priority 1999, dated 2007).

The structures appear in SMILES notation.

Usually IC50 stands for the point on the concentration scale where inhibition reaches its midpoint. Turning to `N=C(N)NC(=O)c1nc(Cl)c(N)nc1N` [Amiloride, N-amidino-3,5-diamino-6-chloropyrazine-2-carboxamide], the “Effect on proton-gated currents” value (100 μM Amiloride, saline at pH 6, voltage clamp −60 mV) is “inhibited”. The IC50 (cultured mouse cortical neuron, voltage clamp −60 mV, saline at pH 6, Hill equation fit, read-out: IC50, inhibition of proton-gated currents) came to 6.2 µM.
